From the supplement of paper PMC10949913

What was measured:
Details in all cases: 48 h
[1] = test system: NCI-H295R; assay: AC50 viability; higher = less potent
Summary of the method: (§1)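 Cells from three adrenocortical carcinoma lines were seeded at 500–1,000 cells/well in 5 µL medium in 1,536-well plates. Each library compound was added as 23 nL at 11 concentrations, and after 48 h CellTiter-Glo was added for 15 minutes at room temperature before reading luminescence. Plate-wise normalisation to vehicle and empty-well controls preceded curve fitting. AC50 and area under the curve were calculated only for inhibitory or non-responding curve classes.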

[2] = test system: CU-ACC1; assay: AC50 viability; higher = less potent
Summary of the method: as §1

[3] = test system: NCI-H295R; assay: area under concentration-response curve (viability) (AUC (a.u.)); higher = less active
Summary of the method: as §1

[4] = test system: CU-ACC1; assay: as above
Summary of the method: as §1

## CN1CCN(C2CCN(C(=O)Nc3cc(Oc4ccc(NC(=O)C5(C(=O)Nc6ccc(F)cc6)CC5)c(F)c4)ccn3)CC2)CC1
[1]
  AC50 viability: 20.9 µM
[2]
  AC50 viability: 29.5 µM
[3]
  area under concentration-response curve: 453
[4]
  area under concentration-response curve: 392

## COC1=CC=C2[N](CCCN(C)C)C=C(C2=C1)C/3=C(/C(=O)NC3=O)C4=C[NH]C5=C4C=CC=C5
[1]
  AC50 viability: 26.3 µM
[2]
  AC50 viability: 26.3 µM
[3]
  area under concentration-response curve: 547
[4]
  area under concentration-response curve: 514

## CN(C)CCCNC(=O)c1ccc(-c2cc(O)c3ncccc3c2)cc1
[1]
  AC50 viability: 0.332 µM
[2]
  AC50 viability: 16.6 µM
[3]
  area under concentration-response curve: 360
[4]
  area under concentration-response curve: 376

## COC(=O)C1=C(C)NC(C)=C(C(=O)OCCN2CCN(C(c3ccccc3)c3ccccc3)CC2)C1c1cccc([N+](=O)[O-])c1.Cl.Cl (stereo not drawn)
[1]
  AC50 viability: 11.8 µM
[2]
  AC50 viability: 20.9 µM
[3]
  area under concentration-response curve: 497
[4]
  area under concentration-response curve: 462

## Cc1c(-c2ccc(O)cc2)n(Cc2ccc(OCCN3CCCCCC3)cc2)c2ccc(O)cc12
[1]
  AC50 viability: 23.5 µM
[2]
  AC50 viability: 29.5 µM
[3]
  area under concentration-response curve: 508
[4]
  area under concentration-response curve: 496

## O=C(C(c1ccccc1)c1ccccc1)N1CCN(CC(O)COc2cccc3ncccc23)CC1 (stereo not drawn)
[1]
  AC50 viability: 16.6 µM
[2]
  AC50 viability: 23.5 µM
[3]
  area under concentration-response curve: 524
[4]
  area under concentration-response curve: 467

## NC(=O)N1CCC(CC(=O)N2CCC([C@H]3c4ncc(Br)cc4CCc4cc(Cl)cc(Br)c43)CC2)CC1
[1]
  AC50 viability: 23.5 µM
[2]
  AC50 viability: 37.2 µM
[3]
  area under concentration-response curve: 440
[4]
  area under concentration-response curve: 440

## Cc1c(C(=O)NN2CCCCC2)nn(-c2ccc(Cl)cc2Cl)c1-c1ccc(Cl)cc1
[1]
  AC50 viability: 18.6 µM
[2]
  AC50 viability: 20.9 µM
[3]
  area under concentration-response curve: 433
[4]
  area under concentration-response curve: 396

## Cc1[nH]c(/C=C2\C(=O)Nc3ccc([S+](=O)([O-])N(C)c4cccc(Cl)c4)cc32)c(C)c1C(=O)N1CCN(C)CC1
[1]
  AC50 viability: 33.2 µM
[2]
  AC50 viability: 20.9 µM
[3]
  area under concentration-response curve: 491
[4]
  area under concentration-response curve: 397

## Cc1cccc(-c2n[nH]cc2-c2ccc(F)c(-c3cnn(CCO)c3)c2)n1
[1]
  AC50 viability: 13.2 µM
[2]
  AC50 viability: 5.25 µM
[3]
  area under concentration-response curve: 308
[4]
  area under concentration-response curve: 284

## NCC1CCN(c2nccc(-c3ccc4ccccc4c3)n2)CC1
[1]
  AC50 viability: 16.6 µM
[2]
  AC50 viability: 23.5 µM
[3]
  area under concentration-response curve: 492
[4]
  area under concentration-response curve: 477

## CCCC\1=C(/CNC(=O)C2=CC(=CC3=C2C=N[N]3C(C)C)C4=CC(=NC=C4)N5CCN(C)CC5)C(=O)NC(=C1)\C
[1]
  AC50 viability: 18.6 µM
[2]
  AC50 viability: 18.6 µM
[3]
  area under concentration-response curve: 501
[4]
  area under concentration-response curve: 478

## CC(C)C[C@H](NC(=O)c1cc2ccccc2s1)C(=O)N1CCN(C(=O)[C@H](CO)N[S+](=O)([O-])c2ccc(Cl)cc2Cl)CC1
[1]
  AC50 viability: 18.6 µM
[2]
  AC50 viability: 16.6 µM
[3]
  area under concentration-response curve: 494
[4]
  area under concentration-response curve: 445

## NC(=O)c1ccc2nc(-c3ccc(C4(N)CCC4)cc3)c(-c3ccccc3)n2n1
[1]
  AC50 viability: 16.6 µM
[2]
  AC50 viability: 18.6 µM
[3]
  area under concentration-response curve: 465
[4]
  area under concentration-response curve: 483

## CN1CCN(c2ncc(-c3cc(Cl)cc(Cl)c3Cl)c(N)n2)CC1
[1]
  AC50 viability: 11.8 µM
[2]
  AC50 viability: 14.8 µM
[3]
  area under concentration-response curve: 487
[4]
  area under concentration-response curve: 405

## COCc1c(-c2ccc(NC(=O)Nc3cc(C(F)(F)F)ccc3F)c(F)c2)c2c(N)ncnn2c1CN1CCOCC1
[1]
  AC50 viability: 6.61 µM
[2]
  AC50 viability: 8.33 µM
[3]
  area under concentration-response curve: 363
[4]
  area under concentration-response curve: 342

## CN1CCN(CCCN2c3ccccc3Sc3ccc(C(F)(F)F)cc32)CC1
[1]
  AC50 viability: 18.6 µM
[2]
  AC50 viability: 29.5 µM
[3]
  area under concentration-response curve: 480
[4]
  area under concentration-response curve: 441

## O=[N+]([O-])c1ccc(O)c2ncccc12
[1]
  AC50 viability: 11.8 µM
[2]
  AC50 viability: 11.8 µM
[3]
  area under concentration-response curve: 483
[4]
  area under concentration-response curve: 482

## Cl.Cl.Cl.O[C@@H](COc1cccc2ncccc12)CN1CCN([C@@H]2c3ccccc3[C@@H]3[C@H](c4ccccc42)C3(F)F)CC1
[1]
  AC50 viability: 16.6 µM
[2]
  AC50 viability: 23.5 µM
[3]
  area under concentration-response curve: 490
[4]
  area under concentration-response curve: 515

## Cc1c(CN2CCN(C(=O)[C@H](C)O)CC2)sc2c(N3CCOCC3)nc(-c3cnc(N)nc3)nc12
[1]
  AC50 viability: 2.09 µM
[2]
  AC50 viability: 0.0295 µM
[3]
  area under concentration-response curve: 210
[4]
  area under concentration-response curve: 215

## CCN1CCN(Cc2ccc(NC(=O)c3ccc(C)c(/C=C/c4cnc5[nH]ccc5c4OC)c3)cc2C(F)(F)F)CC1
[1]
  AC50 viability: 7.42 µM
[2]
  AC50 viability: 9.34 µM
[3]
  area under concentration-response curve: 471
[4]
  area under concentration-response curve: 461

## CN(C)C(=O)C(CCN1CCC(O)(c2ccc(Cl)cc2)CC1)(c1ccccc1)c1ccccc1
[1]
  AC50 viability: 20.9 µM
[2]
  AC50 viability: 16.6 µM
[3]
  area under concentration-response curve: 549
[4]
  area under concentration-response curve: 506

## C[S+](=O)([O-])CCNCc1ccc(-c2ccc3ncnc(Nc4ccc(OCc5cccc(F)c5)c(Cl)c4)c3c2)o1
[1]
  AC50 viability: 20.9 µM
[2]
  AC50 viability: 23.5 µM
[3]
  area under concentration-response curve: 456
[4]
  area under concentration-response curve: 420

## CC(C)C(=O)Nc1ncc(-c2cc(C(F)F)nn2-c2c(Cl)cccc2Cl)s1
[1]
  AC50 viability: 23.5 µM
[2]
  AC50 viability: 23.5 µM
[3]
  area under concentration-response curve: 507
[4]
  area under concentration-response curve: 472

## C/C(=C\C(=O)Nc1ccccc1C(=O)O)c1ccc2ccccc2c1
[1]
  AC50 viability: 18.6 µM
[2]
  AC50 viability: 7.42 µM
[3]
  area under concentration-response curve: 449
[4]
  area under concentration-response curve: 451

## CC(C)Oc1ccc(C(=O)N[C@H](CNC(=O)CN(C)C)Cc2ccc(-c3cn4cccc([C@H](C)O)c4n3)cc2)cc1Cl
[1]
  AC50 viability: 13.2 µM
[2]
  AC50 viability: 16.6 µM
[3]
  area under concentration-response curve: 427
[4]
  area under concentration-response curve: 424

## O=C(NCCCNc1nc(Nc2ccc(N3CCOCC3)cc2)ncc1C1CC1)C1CCC1
[1]
  AC50 viability: 14.8 µM
[2]
  AC50 viability: 2.63 µM
[3]
  area under concentration-response curve: 460
[4]
  area under concentration-response curve: 379

## COc1cc(N2CCN(C)CC2)ccc1Nc1ncc2c(n1)N(C)c1ccccc1C(=O)N2
[1]
  AC50 viability: 23.5 µM
[2]
  AC50 viability: 16.6 µM
[3]
  area under concentration-response curve: 492
[4]
  area under concentration-response curve: 479

## NC(=O)c1cccc(-c2cc(Nc3ccc(OC(F)(F)F)cc3)ncn2)c1
[1]
  AC50 viability: 20.9 µM
[2]
  AC50 viability: 16.6 µM
[3]
  area under concentration-response curve: 538
[4]
  area under concentration-response curve: 488

## CCC(CC)C(c1ccc(Nc2nc3ccccc3s2)cc1)n1cncn1 (stereo not drawn)
[1]
  AC50 viability: 20.9 µM
[2]
  AC50 viability: 29.5 µM
[3]
  area under concentration-response curve: 474
[4]
  area under concentration-response curve: 451

## CC(C)n1cnc2c(NCCCCCCNC(=O)OC(C)(C)C)nc(NCCO)nc21
[1]
  AC50 viability: 23.5 µM
[2]
  AC50 viability: 16.6 µM
[3]
  area under concentration-response curve: 481
[4]
  area under concentration-response curve: 414

## FC(F)(F)C1=CC=C2C(SCCCCCO\C3=C\O\C(CN4CCOCC4)=C/C3=O)=CC=NC2=C1
[1]
  AC50 viability: 18.6 µM
[2]
  AC50 viability: 8.33 µM
[3]
  area under concentration-response curve: 324
[4]
  area under concentration-response curve: 295
